≈ marks a conversion by molar mass, not a printed value. Calls of active or inactive are those of the source. The rule behind the calls is not given here.
What was measured:
[1] = system: Mycobacterium tuberculosis; assay: Antimycobacterial activity against Mycobacterium tuberculosis H37Ra after 24 hrs by microtiter alamar blue assay; assay type: functional
[2] = system: Mycobacterium tuberculosis; assay: Antimycobacterial activity against Mycobacterium tuberculosis H37Ra at 200 ug/ml after 24 hrs by microtiter alamar blue assay; assay type: functional, organism-based
[3] = system: Mycobacterium tuberculosis; assay: Antimycobacterial activity against Pan-sensitive Mycobacterium tuberculosis H37Ra after 24 hrs by microtiter alamar blue assay; assay type: functional

CO[C@H]1/C=C/O[C@@]2(C)Oc3c(C)c(O)c4c(O)c(c(/C=N/N5CCN(C)CC5)c(O)c4c3C2=O)NC(=O)/C(C)=C\C=C\[C@H](C)[C@H](O)[C@@H](C)[C@@H](O)[C@@H](C)[C@H](OC(C)=O)[C@@H]1C [RIFAMPIN]
MIC [1]: 0.004 µg/mL (≈ 0.00486 µM)

COc1cc(/C=C/c2cc(/C=C/c3ccc(O)c(OC)c3)on2)ccc1O
MIC [1]: 1.56 µg/mL (≈ 4.27 µM)

Oc1ccc(/C=C/c2cc(/C=C/c3ccc(O)cc3)on2)cc1
MIC [1]: 12.5 µg/mL (≈ 40.9 µM)

COc1cc(/C=C/C(O)=C/C(=O)/C=C/c2ccc(O)cc2)ccc1O [DEMETHOXYCURCUMIN]
MIC [1]: 50 µg/mL (≈ 148 µM)

COc1cc(/C=C/c2cc(/C=C/c3ccc(O)c(OC)c3)n(-c3ccccc3)n2)ccc1O
MIC [1]: 25 µg/mL (≈ 56.8 µM)

NNC(=O)c1ccncc1 [ISONIAZID]
MIC [1]: 0.06 µg/mL (≈ 0.438 µM)

CC(=O)Oc1ccc(/C=C/C(=O)CC(=O)/C=C/c2ccc(O)cc2)cc1
MIC [1]: 25 µg/mL (≈ 71.4 µM)

COc1cc(/C=C/C(=O)CC(=O)/C=C/c2ccc(O)c(OC)c2)ccc1O [CURCUMIN]
MIC [1]: 100 µg/mL (≈ 271 µM)

COc1cc(/C=C/C(=O)CC(=O)/C=C/c2ccc(OC)c(OC)c2)ccc1O
MIC [1]: 50 µg/mL (≈ 131 µM)

COc1ccc(/C=C/C(=O)CC(=O)/C=C/c2ccc(OC)c(OC)c2)cc1OC [TETRAMETHOXYCURCUMIN]
MIC [1]: 100 µg/mL (≈ 252 µM)

CCCOc1ccc(/C=C/C(=O)CC(=O)/C=C/c2ccc(O)c(OC)c2)cc1OC
MIC [1]: 25 µg/mL (≈ 60.9 µM)

COc1cc(/C=C/C(=O)CC(=O)/C=C/c2ccc(O)cc2)ccc1OC(C)=O
MIC [1]: 50 µg/mL (≈ 131 µM)

COc1cc(/C=C/c2cc(/C=C/c3ccc(O)c(OC)c3)[nH]n2)ccc1O [CURCUMIN PYRAZOLE]
MIC [1]: 200 µg/mL (≈ 549 µM)

COc1cc(/C=C/C(=O)CC(=O)/C=C/c2ccc(OC(C)=O)cc2)ccc1O
MIC [1]: 50 µg/mL (≈ 131 µM)

COc1cc(CC/C=C/C(=O)CCc2ccc(O)c(OC)c2)ccc1O
MIC [1]: 25 µg/mL (≈ 70.1 µM)

COc1cc(/C=C/c2cc(/C=C/c3ccc(O)cc3)[nH]n2)ccc1O
MIC [1]: 100 µg/mL (≈ 299 µM)

C=CCOc1ccc(/C=C/C(=O)CC(=O)/C=C/c2ccc(O)c(OC)c2)cc1OC
MIC [1]: 100 µg/mL (≈ 245 µM)

CCCCCOc1ccc(/C=C/C(=O)CC(=O)/C=C/c2ccc(O)c(OC)c2)cc1OC
MIC [1]: 12.5 µg/mL (≈ 28.5 µM)

COc1cc(/C=C/c2cc(/C=C/c3ccc(OC(C)=O)c(OC)c3)on2)ccc1OC(C)=O
MIC [1]: 1.56 µg/mL (≈ 3.47 µM)

COc1cc(/C=C/C(=O)CC(=O)/C=C/c2ccc(OC(C)=O)c(OC)c2)ccc1O
MIC [1]: 100 µg/mL (≈ 244 µM)

COc1cc(/C=C/c2cc(CCc3ccc(O)c(OC)c3)on2)ccc1O
MIC [1]: 6.25 µg/mL (≈ 17 µM)

COc1cc(/C=C/C=C/C(=O)CCc2ccc(O)c(OC)c2)ccc1O
MIC [1]: 25 µg/mL (≈ 70.5 µM)

COc1cc(/C=C/C(=O)CC(=O)/C=C/c2ccc(OCCO)c(OC)c2)ccc1O
MIC [1]: 200 µg/mL (≈ 485 µM)

COc1cc(CCC(O)CC(O)CCc2ccc(O)c(OC)c2)ccc1O (stereo not drawn)
MIC [2]: inactive

COc1cc(/C=C/C(=O)CC(=O)/C=C/c2ccc(OCCO)c(OC)c2)ccc1OCCO
MIC [1]: 200 µg/mL (≈ 438 µM)

CC(=O)Oc1ccc(/C=C/C(=O)CC(=O)/C=C/c2ccc(OC(C)=O)cc2)cc1
MIC [1]: 25 µg/mL (≈ 63.7 µM)

COc1cc(/C=C/C(=O)CC(=O)CCc2ccc(O)c(OC)c2)ccc1O
MIC [1]: 200 µg/mL (≈ 540 µM)

COc1cc(/C=C/C(=O)/C=C/CCc2ccc(O)c(OC)c2)ccc1O
MIC [1]: 12.5 µg/mL (≈ 35.3 µM)

COc1cc(/C=C/C(=O)CC(=O)/C=C/c2ccc(O)c(O)c2)ccc1O
MIC [1]: 200 µg/mL (≈ 564 µM)

COc1cc(CCC(=O)CC(=O)CCc2ccc(O)c(OC)c2)ccc1O [TETRAHYDROCURCUMIN]
MIC [1]: 50 µg/mL (≈ 134 µM)

CCCCCOc1ccc(/C=C/c2cc(/C=C/c3ccc(O)c(OC)c3)no2)cc1OC
MIC [3]: 6.25 µg/mL (≈ 14.4 µM)
MIC [1]: 6.25 µg/mL (≈ 14.4 µM)

COc1cc(/C=C/c2cc(/C=C/c3ccc(OC)c(OC)c3)on2)ccc1O
MIC [3]: 0.78 µg/mL (≈ 2.06 µM)
MIC [1]: 0.78 µg/mL (≈ 2.06 µM)

COc1cc(CCC(=O)CC(O)CCc2ccc(O)c(OC)c2)ccc1O (stereo not drawn) [HEXAHYDROCURCUMIN]
MIC [1]: 100 µg/mL (≈ 267 µM)

O=C(/C=C/c1ccc(O)cc1)CC(=O)/C=C/c1ccc(O)cc1 [BISDEMETHOXYCURCUMIN]
MIC [1]: 25 µg/mL (≈ 81.1 µM)

CCCOc1ccc(/C=C/C(=O)CC(=O)/C=C/c2ccc(OCCC)c(OC)c2)cc1OC
MIC [1]: 200 µg/mL (≈ 442 µM)

Oc1ccc(/C=C/c2cc(/C=C/c3ccc(O)cc3)[nH]n2)cc1
MIC [1]: 25 µg/mL (≈ 82.1 µM)

COc1cc(CCc2cc(CCc3ccc(O)c(OC)c3)on2)ccc1O
MIC [1]: 100 µg/mL (≈ 271 µM)

COc1cc(/C=C/C=C/C(=O)/C=C/c2ccc(O)c(OC)c2)ccc1O
MIC [1]: 12.5 µg/mL (≈ 35.5 µM)

COc1cc(/C=C/c2cc(/C=C/c3ccc(OC(C)=O)c(OC)c3)on2)ccc1O
MIC [1]: 1.56 µg/mL (≈ 3.83 µM)

NC[C@H]1O[C@H](O[C@H]2[C@H](O)[C@@H](O[C@H]3O[C@H](CO)[C@@H](O)[C@H](N)[C@H]3O)[C@H](N)C[C@@H]2N)[C@H](O)[C@@H](O)[C@@H]1O [KANAMYCIN]
MIC [1]: 2.5 µg/mL (≈ 5.16 µM)

O=C(/C=C/c1ccc(O)c(O)c1)CC(=O)/C=C/c1ccc(O)c(O)c1 [DIDEMETHYLCURCUMIN]
MIC [1]: 100 µg/mL (≈ 294 µM)

CCCCCOc1ccc(/C=C/c2cc(/C=C/c3ccc(OCCCCC)c(OC)c3)on2)cc1OC
MIC [2]: inactive

C=CCOc1ccc(/C=C/C(=O)CC(=O)/C=C/c2ccc(OCC=C)c(OC)c2)cc1OC
MIC [2]: inactive

COc1cc(/C=C/C(=O)CC(=O)/C=C/c2ccc(OC(C)=O)c(OC)c2)ccc1OC(C)=O
MIC [1]: 200 µg/mL (≈ 442 µM)

Oc1ccc(/C=C/c2cc(/C=C/c3ccc(O)c(O)c3)on2)cc1O
MIC [1]: 200 µg/mL (≈ 593 µM)

CCCCCOc1ccc(/C=C/c2cc(/C=C/c3ccc(O)c(OC)c3)on2)cc1OC
MIC [3]: 0.39 µg/mL (≈ 0.895 µM)
MIC [1]: 0.39 µg/mL (≈ 0.895 µM)

O=C(/C=C/c1ccc(O)cc1)CC(=O)/C=C/c1ccc(O)c(O)c1
MIC [1]: 200 µg/mL (≈ 617 µM)

COc1cc(/C=C/C(=O)CC(=O)/C=C/c2ccc(OC(C)=O)cc2)ccc1OC(C)=O
MIC [1]: 100 µg/mL (≈ 237 µM)

COc1cc(/C=C/c2cc(/C=C/c3ccc(OC)c(OC)c3)no2)ccc1O
MIC [3]: 0.09 µg/mL (≈ 0.237 µM)
MIC [1]: 0.09 µg/mL (≈ 0.237 µM)

COc1cc(/C=C/c2cc(/C=C/c3ccc(OC(C)=O)c(OC)c3)no2)ccc1O
MIC [1]: 1.56 µg/mL (≈ 3.83 µM)

COc1cc(CCCCC(=O)CCc2ccc(O)c(OC)c2)ccc1O
MIC [1]: 100 µg/mL (≈ 279 µM)

COc1ccc(/C=C/c2cc(/C=C/c3ccc(OC)c(OC)c3)on2)cc1OC
MIC [1]: 0.39 µg/mL (≈ 0.991 µM)

CCCCCOc1ccc(/C=C/C(=O)CC(=O)/C=C/c2ccc(OCCCCC)c(OC)c2)cc1OC
MIC [1]: 100 µg/mL (≈ 197 µM)

COc1ccc(/C=C/c2cc(/C=C/c3ccc(OC)cc3)on2)cc1
MIC [2]: inactive
